Measured values reported in patent US10829501B2 (BRISTOL-MYERS SQUIBB COMPANY, priority 2016, dated 2020).
Counter-ions that a name gives are not always drawn. Like-named read-outs stand apart in the source and are kept apart here.

Target: ROCK2 (Homo sapiens, UniProt O75116)
Assay: ROCK2 kinase inhibition assay (LABCHIP 3000 Reader, FITC peptide substrate);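 also: rho kinase reaction read by separating phosphorylated from unphosphorylated peptide on chip, with inhibition of kinase activity computed per concentration across a dose-response series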
[1] = read-out: ROCK2 Activity (ROCK2 IC50), 5 μM ATP, 1.5 μM peptide substrate, pH 7.5

Chain of ROCK2 (O75116 whole entry, species assumed): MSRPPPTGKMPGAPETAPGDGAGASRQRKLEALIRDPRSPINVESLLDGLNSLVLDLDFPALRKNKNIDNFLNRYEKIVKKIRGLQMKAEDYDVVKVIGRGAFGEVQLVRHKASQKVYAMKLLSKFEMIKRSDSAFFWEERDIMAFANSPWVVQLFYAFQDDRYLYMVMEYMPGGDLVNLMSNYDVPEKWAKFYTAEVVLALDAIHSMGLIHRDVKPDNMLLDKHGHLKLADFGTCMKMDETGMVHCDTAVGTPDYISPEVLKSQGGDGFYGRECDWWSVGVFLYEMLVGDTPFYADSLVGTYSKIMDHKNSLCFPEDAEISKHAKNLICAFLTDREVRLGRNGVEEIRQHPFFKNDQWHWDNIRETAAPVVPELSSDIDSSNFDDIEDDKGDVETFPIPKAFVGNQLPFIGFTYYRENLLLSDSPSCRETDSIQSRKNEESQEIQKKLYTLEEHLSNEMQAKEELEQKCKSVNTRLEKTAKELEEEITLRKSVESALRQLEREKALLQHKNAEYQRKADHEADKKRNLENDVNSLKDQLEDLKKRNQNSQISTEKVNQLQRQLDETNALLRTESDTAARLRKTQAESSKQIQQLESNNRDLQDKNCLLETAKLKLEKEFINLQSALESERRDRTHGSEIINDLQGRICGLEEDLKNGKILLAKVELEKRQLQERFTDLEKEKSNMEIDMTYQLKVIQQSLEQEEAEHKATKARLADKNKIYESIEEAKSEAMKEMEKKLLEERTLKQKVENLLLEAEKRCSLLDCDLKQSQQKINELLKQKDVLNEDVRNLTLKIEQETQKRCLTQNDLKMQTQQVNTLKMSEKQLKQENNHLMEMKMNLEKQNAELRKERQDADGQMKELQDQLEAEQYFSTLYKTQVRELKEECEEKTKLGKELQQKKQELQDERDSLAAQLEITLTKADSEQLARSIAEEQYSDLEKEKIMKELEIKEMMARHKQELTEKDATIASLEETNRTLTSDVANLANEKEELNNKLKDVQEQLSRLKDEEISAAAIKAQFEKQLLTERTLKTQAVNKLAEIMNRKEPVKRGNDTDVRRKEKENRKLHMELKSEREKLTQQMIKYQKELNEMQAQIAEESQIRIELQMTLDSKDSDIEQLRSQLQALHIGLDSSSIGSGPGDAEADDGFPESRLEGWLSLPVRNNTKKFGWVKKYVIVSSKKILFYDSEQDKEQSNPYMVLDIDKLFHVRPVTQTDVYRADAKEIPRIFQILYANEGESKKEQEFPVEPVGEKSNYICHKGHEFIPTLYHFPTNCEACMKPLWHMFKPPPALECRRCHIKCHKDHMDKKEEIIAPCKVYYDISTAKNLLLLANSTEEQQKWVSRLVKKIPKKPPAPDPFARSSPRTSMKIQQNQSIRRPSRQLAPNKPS

Compound | IC50 [nM] | IC50 [1] [nM]
2-(((aR)-6-(1- (pyridin-2-yl)-5- (trifluoromethyl)- 1H-pyrazole-4- carboxamido) spiro[3.3]heptan-2- yl)oxy) nicotinamide [Example 129] |  | 250 to 2500
2-(((aR)-6-(3-(2- methylthiazol-4- yl)benzamido)spiro [3.3]heptan-2- yl)oxy)nicotinamide, trifluoroacetate [Example 133] |  | 5 to 50
2-(((aR)-6-(3-cyano- 5-(1-methyl- 1H-pyrazol-4- yl)benzamido) spiro[3.3]heptan-2- yl)oxy)nicotinamide [Example 195] |  | < 5
2-((aR)-6- (1-methyl-3- (trifluoromethyl)- 1H-pyrazole- 5-carboxamido) spiro[3.3]heptan- 2-yl)oxy) nicotinamide, trifluoroacetate [Example 86] |  | 50 to 250
2-((aR)-6- (1-phenyl-1H- pyrazole-4- carboxamido) spiro[3.3]- heptan-2-yl)oxy) nicotinamide, trifluoroacetate [Example 73] |  | 5 to 50
Cc1c(C(=O)NC2CC3(C2)CC(Oc2ccccc2C(N)=O)C3)cnn1-c1ccccc1 (centres unmarked) [Example 1, N-(6-(2-carbamoylphenoxy)spiro[3.3]heptan-2-yl)-5-methyl-1-phenyl-1H-pyrazole-4-carboxamide] | 50 to 250 | 
Cn1nc(C(=O)NC2CC3(C2)CC(Oc2ccccc2C(N)=O)C3)c2ccccc21 (centres unmarked) [Example 2, N-(6-(2-carbamoylphenoxy)spiro[3.3]heptan-2-yl)-1-methyl-1H-indazole-3-carboxamide] | 50 to 250 | 
CC(C)(O)COc1ccc2c(C(=O)NC3CC4(C3)CC(Oc3ccccc3C(N)=O)C4)cnn2c1 (centres unmarked) [Example 3, N-(6-(2-carbamoylphenoxy)spiro[3.3]heptan-2-yl)-6-(2-hydroxy-2-methylpropoxy)pyrazolo[1,5-a]pyridine-3-carboxamide] | 5 to 50 | 

Further lines, with some results ahead:

IC50 [nM] | Compound | IC50 [1] [nM]
50 to 250 | CC(C)(O)COc1ccc2c(C(=O)N[C@H]3CC4(C3)C[C@H](Oc3ncccc3C(N)=O)C4)cnn2c1N1CCCCC1=O (atropisomer, axis not shown; (aR)) [Example 69, N-((aR)-6-((3-carbamoylpyridin-2-yl)oxy)spiro[3.3]heptan-2-yl)-6-(2-hydroxy-2-methylpropoxy)-7-(2-oxopiperidin-1-yl)pyrazolo[1,5-a]pyridine-3-carboxamide, trifluoroacetate] | 
5 to 50 | [H][C@]1(Oc2cc(-c3cnn(C)c3)ccc2C(N)=O)C[C@@]2(C[C@H](NC(=O)c3cnn4cc(OCC(C)(C)O)ccc34)C2)C1 (single isomer, unassigned) [Example 276] | 
5 to 50 | NC(=O)c1ccccc1OC1CC2(CC(NC(=O)c3cnn4cc(OC5CCOC5)ccc34)C2)C1 (centres unmarked) [Example 4, N-(6-(2-carbamoylphenoxy)spiro[3.3]heptan-2-yl)-6-((tetrahydrofuran-3-yl)oxy)pyrazolo[1,5-a]pyridine-3-carboxamide] | 
50 to 250 | COc1cc(C(=O)NC2CC3(C2)CC(Oc2ccccc2C(N)=O)C3)ccc1-c1cn[nH]c1 (centres unmarked) [Example 5, N-(6-(2-carbamoylphenoxy)spiro[3.3]heptan-2-yl)-3-methoxy-4-(1H-pyrazol-4-yl)benzamide] | 
< 5 | CC(C)(O)COc1ccc2c(C(=O)NC3CC4(C3)CC(Oc3ncccc3C(N)=O)C4)cnn2c1 (centres unmarked) [Example 6, N-(6-((3-carbamoylpyridin-2-yl)oxy)spiro[3.3]heptan-2-yl)-6-(2-hydroxy-2-methylpropoxy)pyrazolo[1,5-a]pyridine-3-carboxamide] | 
250 to 2500 | CC(C)(O)COc1ccc2c(C(=O)NC3CC4(C3)CC(Oc3nccnc3C(N)=O)C4)cnn2c1 (centres unmarked) [Example 7, N-(6-((3-carbamoylpyrazin-2-yl)oxy)spiro[3.3]heptan-2-yl)-6-(2-hydroxy-2-methylpropoxy)pyrazolo[1,5-a]pyridine-3-carboxamide] | 
